The values that follow come from patent US20210059961A1, “CANNABINOID DOSING REGIME FOR ACNE” (priority 2018, published 2021).

Molecules are shown by their SMILES. Where only a bound is given, the exact number is not on record here.

One data set concerns cardiac inflammation. As to conditions: injected into rats; cited from earlier work.
Data set [1] in a line: Healthy volunteer study of single and multiple-dose BTX 1503 5% Solution (BTX.2017.001): pharmacokinetics, safety. As to conditions: for mean CBD trough level Day 15: multiple dose phase. It is filed as in vivo, human. The protocol: The pharmacokinetics (PK) of single and multiple-dose administration of BTX 1503 5% Solution were evaluated in a healthy volunteer study. In this study, BTX 1503 5% Solution was applied as a single dose either QD or BID (12 hrs apart) on Day 1 followed by a 6-day washout period, then either QD or BID for 14 days (Day 8 to Day 21). Five subjects were enrolled in each cohort and doses were escalated for each sequential cohort enrolled with the following doses. • Cohort 1: 37.5 mg CBD/day or 0.066 mg/cm^2/day^a applied as 1 mL of BTX 1503 5% (w/w) QD • Cohort 2: 75 mg CBD/day or 0.133 mg/cm^2/day applied as 1 mL BTX 1503 5% (w/w) BID • Cohort 3: 112.5 mg CBD/day or 0.199 mg/cm^2/day applied as 3 mL of BTX 1503 5% (w/w) QD • Cohort 4: 225 mg CBD/day or 0.398 mg/cm^2/day applied as 3 mL of BTX 1503 5% (w/w) BID Area of application assumed to be 565 cm^2 (i.e., on the face), which is reported by the European Union Scientific Committee on Consumer Safety (SCCS) to be half of the surface area for a female head (SCCS Notes of Guidance for the Testing of Cosmetic Substances and Their Safety Evaluation, 8th edition, 2012; Table 2).
Blood samples were taken for PK assessments on Day 1 (Baseline) at pre-dose (15 mins before dosing), 30, 60 and 90 mins and 2, 2.5, 3, 4, 6, 8 and 12 hrs, and 24 hrs after the first single dose. For participants that received BID dosing, samples were also taken at 30, 60 and 90 mins and 2, 2.5, 3, 4, 6, and 8 hrs after the second dose on Day 1.
During the multiple dose (14-day) phase, trough levels were obtained before the morning application on Day 15. On Day 21, blood samples were taken for PK assessments at pre-dose (15 mins before dosing), 30, 60 and 90 mins and 2, 2.5, 3, 4, 6, 8 and 12 hrs, 24 hrs and 48 hrs after the morning dose. For participants that received BID dosing, samples were also be taken at 30, 60 and 90 mins and 2, 2.5, 3, 4, 6, and 8 hrs after the second dose on Day 21. A sample was obtained on Day 23, 48 hrs after the last morning dose. […]

Data set [2] in a line: Skin permeation of CBD, Franz-type diffusion cell. It is filed as in vitro ADME. The procedure:
Dermatomed skin from a single donor was mounted in a Franz-type diffusion cell (0.55 cm^2 receptor fluid exposure surface area) and dosed with 5 ul of 2-[3-methyl-6-(1-methylethenyl)-2-cyclohexen-1-yl]-5-pentyl-1,3-benzenediol (CBD), BTX 1503 5% Solution, formulated in an mixture of a volatile solvent (hexylmethyldisiloxane/polymethylsiloxane—93% w/w), and residual solvent (arlamol E—2% w/w) at a concentration of 5.0% (w/w; 35.5 mg/ml). Following dosing, receptor phase samples were collected at 4, 10, 24 and 48 hours; after which the study was terminated.
The residual formulation was removed by tape stripping and the epidermis and dermis separated by blunt dissection. The levels of CBD in the epidermis, dermis, and receptor fluid samples were then analyzed using a bioanalytical method with LC-MS/MS detection.

Data set [3] can be described thus: Open-label study in patients with acne vulgaris: study drug plasma levels. Type of data set: in vivo, human. The text has this:
Eligible subjects were enrolled within 14 days after the Screening Visit. Assessments for safety (CBC, chemistry, urinalysis, and vital signs) were obtained at the Baseline Visit (Day 1). If the Screening and Baseline Visits were not conducted on the same day, a UPT for WOCBP, lesion counts on the face, an Investigator's Global Assessment (IGA) for facial acne and a UDS were repeated. Baseline photographs of the face and a blood sample for Baseline study drug plasma levels were obtained. […] Cutaneous tolerability assessments were conducted at one hour after the first application. […]
Safety was the primary outcome measure. The safety outcomes were measured through assessment of: • AEs monitored from time of consent through the end of study. • Cutaneous tolerability (erythema, scaling, dryness, burning/stinging, and irritant/allergic contact dermatitis) collected at Baseline, Day 14, Day 28, and Day 35 and graded using the following scale: 0, None; 1, Slight; 2, Moderate; 3, Severe. • Vital signs (temperature, blood pressure, and pulse) obtained at Baseline, Day 14, Day 28 and Day 35. • Complete blood count (CBC), chemistry, and urinalysis at Baseline and at Day 28. Blood levels of study drug will be measured at Baseline and prior to dosing (trough level) on Day 14, Day 28, and Day 35. […]

Data set [4] has as its target human vanilloid receptor type 1 (VR1) (Homo sapiens, UniProt Q8NER1). As to conditions: in vitro; cited from earlier work.
The next data set has as its system anandamide. As to conditions: in vitro; cited from earlier work.
The subject of the next data set is airway obstruction. The settings on record: intravenous, sensitized guinea-pigs; cited from earlier work.
For data set [5], the system named is immortalized human sebocytes. As to conditions: cited from earlier work.
[6] abbreviates: 5 ul of 5.0% w/w solution, 48-hour exposure.

human vanilloid receptor type 1 (VR1), sequence (Q8NER1 whole entry): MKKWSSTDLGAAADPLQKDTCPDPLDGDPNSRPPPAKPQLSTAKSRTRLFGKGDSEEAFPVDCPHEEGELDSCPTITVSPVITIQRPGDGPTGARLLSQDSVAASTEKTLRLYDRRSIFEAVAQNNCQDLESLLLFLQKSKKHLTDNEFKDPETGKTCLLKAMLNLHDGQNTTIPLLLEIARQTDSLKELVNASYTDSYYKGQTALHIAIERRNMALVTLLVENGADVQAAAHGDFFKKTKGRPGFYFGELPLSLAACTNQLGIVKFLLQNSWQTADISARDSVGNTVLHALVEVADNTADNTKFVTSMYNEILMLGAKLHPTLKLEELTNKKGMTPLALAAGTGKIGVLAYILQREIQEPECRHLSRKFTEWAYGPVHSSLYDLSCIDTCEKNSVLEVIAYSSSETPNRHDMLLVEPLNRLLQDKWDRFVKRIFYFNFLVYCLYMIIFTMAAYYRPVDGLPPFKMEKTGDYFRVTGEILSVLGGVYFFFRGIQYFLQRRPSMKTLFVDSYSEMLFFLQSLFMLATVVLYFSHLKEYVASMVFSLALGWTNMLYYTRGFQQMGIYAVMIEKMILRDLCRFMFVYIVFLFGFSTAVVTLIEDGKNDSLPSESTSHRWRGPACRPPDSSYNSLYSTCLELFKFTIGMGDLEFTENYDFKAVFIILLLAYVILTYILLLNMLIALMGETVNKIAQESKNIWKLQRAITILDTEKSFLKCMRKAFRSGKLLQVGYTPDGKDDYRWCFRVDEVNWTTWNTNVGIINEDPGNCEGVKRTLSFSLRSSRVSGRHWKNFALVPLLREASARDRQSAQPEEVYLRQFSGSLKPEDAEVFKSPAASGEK

On to `C=C(C)C1CCC(C)=CC1c1c(O)cc(CCCCC)cc1O` (stereo not drawn) [CBD, 2-[3-methyl-6-(1-methylethenyl)-2-cyclohexen-1-yl]-5-pentyl-1,3-benzenediol], for which, in the data set on cardiac inflammation, the “effect on cardiac inflammation” value was “attenuated cardiac inflammation”. Besides, the “mean pre-dose CBD level Day 21” value in data set [1] (Cohort 1: 1 mL QD) came to 0.545 ng/mL. Also, in data set [1] (Cohort 2: 1 mL BID), the “mean pre-dose CBD level Day 21” value turned out to be 0.770 ng/mL and the “mean CBD trough level Day 15” value is on record as 0.781 ng/mL. Also, in data set [1] (Cohort 3: 3 mL QD), the “mean pre-dose CBD level Day 21” value is 0.715 ng/mL and the “mean CBD trough level Day 15” value is reported as 0.525 ng/mL. Besides, in data set [1] (Cohort 4, one subject), the “CBD trough level Day 15 of the outlier subject” value is reported as 5.99 ng/mL. For the same molecule, the “mean pre-dose CBD level Day 21” value in data set [1] (Cohort 4: 3 mL BID) is 1.553 ng/mL. Besides, the “mean CBD trough level Day 15” value in data set [1] (Cohort 4: 3 mL BID, all subjects) is listed as 2.11 ng/mL. In data set [1] (Cohort 4: 3 mL BID, one outlier excluded), the “mean CBD trough level Day 15 without outlier subject” value is 1.16 ng/mL. In data set [1] (accumulation after 14 days dosing), the “Cmax Day 21 relative to Day 1 Cmax, mean” value was 1.92 times. Besides, in data set [2] (setting [6]), the “CBD in the receptor phase (skin permeation)” value is given as less than 278 ng/cm^2 and the “CBD in the receptor phase (skin permeation), percent of applied dose” value is “less than 0.081%”. Also, in data set [2] (48-hour period), the “dermal deposition of CBD” value was 4.54 % of the applied dose; the dermis concentration is on record as 8,408 ng/cm^2; the “dermis concentration per tissue” value is reported as 1,933 ng/g of tissue; the “dermis concentration, volume equivalent” value is on record as ~1,933 ng/mL. Further, the “epidermal deposition of CBD” value in data set [2] (48-hour period) was 13.17 % of the applied dose. Moreover, in data set [3] (Day 35 visit, 7 days after final dose), the “subjects with circulating levels of CBD” value was “Nine”. In addition, the “study drug (CBD) plasma levels” value in data set [3] (throughout the study, 225 mg CBD per day) is on record as “low”. Besides, the “effect on human vanilloid receptor type 1 (VR1)” value in data set [4] is listed as “stimulate”. In addition, the effect on anandamide entry in the data set on anandamide is on record as “inhibit”. Also, the “effect on airway obstruction” value with airway obstruction is listed as “reduced airway obstruction”. In data set [5], the “effects on immortalized human sebocytes” value is “lipostatic, anti-proliferative, and anti-inflammatory effects”.
